Consider 12 molecules from PubChem BioAssay (NCI).

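Protocol summary: plate cells (96-well), add compound at 5 concentrations, incubate 48 h, interpolate endpoints linearly. Abbreviation: GI50, concentration required for 50% inhibition of growth. TGI: total growth inhibition.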 Where only a bound is given, the exact number is not on record here.

Test systems include HL-60(TB) leukemia; HOP-92 NSCLC; HS 578T breast; NCI-H226 lung; NCI-H460 lung; NCI-H522 lung; OVCAR-3 ovarian; OVCAR-4 ovarian; SK-MEL-5 melanoma; ACHN renal.
Assay in all cases: NCI anticancer screen, dose series, 48 h

As to `CC(C)=NN/C(=N\S(=O)(=O)c1ccc(Oc2cccc(Cl)c2C#N)cc1)Nc1ccc(Cl)cc1`, the TGI in the test on HL-60(TB) leukemia, with HOP-92 NSCLC, in the test with HS 578T breast, with NCI-H226 lung, with NCI-H460 lung and with NCI-H522 lung was more than 100 µM in each case. For the same molecule, the TGI in the test with OVCAR-3 ovarian, in the test with OVCAR-4 ovarian and in the test with SK-MEL-5 melanoma was more than 100 µM in each case.

Take `NS(=O)(=O)c1ccc(/C=C/c2ccc(F)cc2)cc1`: the GI50 in the test on ACHN renal was 2.97 µM; in the test on HL-60(TB) leukemia it was 37.3 µM; in the test on HOP-92 NSCLC, 33.2 µM; in the test on HS 578T breast, 23.7 µM; with NCI-H226 lung, 7.97 µM; in the test with NCI-H522 lung, 4.81 µM. In addition, the GI50 with OVCAR-4 ovarian was 34.4 µM. In addition, the TGI in the test on ACHN renal was 19.4 µM; with HL-60(TB) leukemia, more than 100 µM; with HOP-92 NSCLC, 77.6 µM; in the test with HS 578T breast it was 77.7 µM; with NCI-H226 lung, 27 µM; with NCI-H460 lung, more than 100 µM. Besides, the TGI is 27.6 µM in the test on NCI-H522 lung, 57 µM in the test with OVCAR-3 ovarian and more than 100 µM with OVCAR-4 ovarian.

Regarding `CC(C)CNc1nc2ncnc(N)c2[nH]1`, the TGI in the test on ACHN renal, in the test with HL-60(TB) leukemia, in the test with HOP-92 NSCLC, in the test with HS 578T breast, in the test with NCI-H226 lung and in the test with NCI-H460 lung was more than 100 µM in each case. In addition, the TGI in the test with NCI-H522 lung, in the test on OVCAR-3 ovarian, with OVCAR-4 ovarian and with SK-MEL-5 melanoma was more than 100 µM throughout.

Take `CN(C)c1ccc(/C(F)=C(F)/C(F)=C(F)/C(F)=C(\F)c2ccc(Br)cc2)cc1`: the TGI in the test with ACHN renal is more than 100 µM; in the test with HL-60(TB) leukemia, more than 75 µM; with HOP-92 NSCLC, more than 100 µM; with HS 578T breast, 52.6 µM; in the test with NCI-H226 lung, more than 100 µM; with NCI-H460 lung it was more than 100 µM. The TGI with NCI-H522 lung was 27.1 µM; in the test on OVCAR-3 ovarian, more than 60.5 µM; with OVCAR-4 ovarian it was more than 100 µM; with SK-MEL-5 melanoma, more than 100 µM.

For the molecule `OCC(O)C(O)C(O)C(O)c1nc2ccc(Cl)cc2[nH]1` (stereo not given), the TGI in the test on ACHN renal was more than 100 µM; in the test on HL-60(TB) leukemia it was 4.89 µM; in the test on HOP-92 NSCLC it was more than 100 µM; in the test on HS 578T breast, more than 100 µM; in the test with NCI-H226 lung, more than 100 µM; in the test with NCI-H460 lung it was more than 100 µM. The TGI with NCI-H522 lung, in the test on OVCAR-3 ovarian, with OVCAR-4 ovarian and in the test with SK-MEL-5 melanoma was more than 100 µM throughout.

Turning to `O=C(N/N=C/C=C/c1ccc([N+](=O)[O-])o1)c1cc2ccccc2cc1O`, the GI50 is 1.26 µM in the test with ACHN renal; 1.43 µM in the test with HL-60(TB) leukemia; 2.08 µM with HOP-92 NSCLC; 3.6 µM in the test on HS 578T breast; 1.64 µM in the test with NCI-H226 lung; 1.64 µM in the test with NCI-H460 lung. For the same molecule, the GI50 in the test with NCI-H522 lung was 0.486 µM; in the test with OVCAR-3 ovarian, 0.562 µM; with OVCAR-4 ovarian, 1.06 µM; in the test on SK-MEL-5 melanoma, 0.349 µM. In addition, the TGI with ACHN renal was 9.39 µM; in the test on HL-60(TB) leukemia it was 11.3 µM; with HOP-92 NSCLC, 5.52 µM; in the test with HS 578T breast, more than 100 µM; in the test on NCI-H226 lung, 4.78 µM; with NCI-H460 lung it was 6.9 µM. For the same molecule, the TGI in the test with NCI-H522 lung stood at 2.72 µM; with OVCAR-3 ovarian, 5.83 µM; in the test on OVCAR-4 ovarian, 2.77 µM; with SK-MEL-5 melanoma it was 1.48 µM.

For the molecule `Cc1ccc(OCC2OC(n3cnc4c(Cl)nc(N)nc43)CC2Oc2ccc(C)cc2)cc1` (stereo not given), the TGI in the test with ACHN renal was 40 µM; in the test with HL-60(TB) leukemia, more than 71.7 µM; in the test with HOP-92 NSCLC it was 51.7 µM; in the test with HS 578T breast, more than 100 µM; in the test on NCI-H226 lung, more than 100 µM; in the test on NCI-H460 lung, more than 100 µM. The TGI was 12.1 µM with NCI-H522 lung, more than 63.9 µM in the test with OVCAR-3 ovarian, 61.3 µM in the test on OVCAR-4 ovarian and more than 100 µM in the test on SK-MEL-5 melanoma.

Consider `O=S(=O)(c1ccc(NC2=NC(c3ccc(O)cc3)(c3ccccc3O)c3ccccc32)cc1)c1ccc(NC2=NC(c3ccc(O)cc3)(c3ccccc3O)c3ccccc32)cc1` (stereo not given), for which the TGI was more than 100 µM with ACHN renal; 5.09 µM with HL-60(TB) leukemia; more than 70.6 µM with HOP-92 NSCLC; more than 100 µM in the test on HS 578T breast; 19.2 µM in the test with NCI-H226 lung; 47.5 µM in the test with NCI-H460 lung. In addition, the TGI in the test with NCI-H522 lung is 4.76 µM; in the test with OVCAR-3 ovarian, more than 100 µM; in the test on OVCAR-4 ovarian, 13.7 µM; in the test on SK-MEL-5 melanoma, more than 100 µM.

Regarding `N#CC1(C#N)NC(c2cccs2)C(C#N)(C#N)NC1c1cccs1` (stereo not given), the TGI with ACHN renal is more than 100 µM; with HL-60(TB) leukemia, 41.3 µM; in the test with HOP-92 NSCLC, 78.7 µM; with HS 578T breast, more than 100 µM; with NCI-H226 lung, more than 100 µM; with NCI-H460 lung, more than 100 µM. Besides, the TGI in the test with NCI-H522 lung was 88.4 µM; in the test with OVCAR-3 ovarian it was 67.8 µM; in the test with OVCAR-4 ovarian, more than 100 µM; with SK-MEL-5 melanoma it was 74.2 µM.

With `CCCCCCCC/C=C\CCCCCCC/C=C1\C[C@](/C=C/C(=O)OC)(CO)OC1=O`, the TGI in the test with ACHN renal turned out to be 7.9 µM; in the test on HL-60(TB) leukemia, 6.14 µM; in the test on HOP-92 NSCLC, 21.1 µM; in the test with HS 578T breast it was 4.69 µM; in the test on NCI-H226 lung, 6.66 µM; with NCI-H460 lung it was 20.2 µM. The TGI is 8.61 µM in the test with NCI-H522 lung, 16.6 µM in the test with OVCAR-3 ovarian, 10.9 µM in the test with OVCAR-4 ovarian and 16.8 µM with SK-MEL-5 melanoma.

With `COc1ccc(C2=Nc3cc(C)c(C)cc3NC(c3ccccc3)C2)cc1` (stereo not given), the TGI in the test on ACHN renal, in the test on HL-60(TB) leukemia, in the test on HOP-92 NSCLC, in the test on HS 578T breast, in the test on NCI-H226 lung and with NCI-H460 lung was more than 100 µM each time. Further, the TGI with NCI-H522 lung, in the test with OVCAR-3 ovarian, with OVCAR-4 ovarian and in the test with SK-MEL-5 melanoma was more than 100 µM throughout.

As to `C[n+]1cccc2c(=O)c3ccccc3oc21`, the TGI in the test on ACHN renal, with HL-60(TB) leukemia, with HOP-92 NSCLC, in the test on HS 578T breast, in the test on NCI-H226 lung and in the test on NCI-H460 lung was more than 100 µM in each case. The TGI in the test with NCI-H522 lung, in the test on OVCAR-3 ovarian, in the test on OVCAR-4 ovarian and in the test on SK-MEL-5 melanoma was more than 100 µM each time.
